Holding throughout (assay type): in vivo
Assay [1] has as its system Abutilon theophrasti (ABUTH). The assay is described as follows: Pre-emergence herbicidal glasshouse test (Table B1). Particulars: applied at 500 g/h, evaluated after 13 days. Summed up:
(§1)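 Five-point damage scores (1=0-19% through 5=80-100%) were recorded 13 days after spraying. Pre-emergence treatment came one day after sowing, post-emergence after 8 days; rate 500 g/h unless otherwise indicated.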

Assay [2] concerns Amaranthus retoflexus (AMARE). The assay is described as above. The settings on record: applied at 500 g/h, evaluated after 13 days. The essentials: as §1
Assay [3] has as its system Echinochloa crus-galh (ECHCG). Described as above. The settings on record: applied at 500 g/h, evaluated after 13 days. The essentials:
as §1

In assay [4] the test system is Ipomoea hederacea (IPOHE). Described as above. The settings on record: applied, evaluated after 13 days. Summed up: as §1
The subject of assay [5] is Setaria faberi (SETFA). The assay is described as above. Particulars: applied at 500 g/h, evaluated after 13 days. The essentials:
as §1

Assay [6] deals with Abutilon theophrasti (ABUTH). Kind of assay: Post-emergence herbicidal glasshouse test (Table B1). The settings on record: applied at 500 g/h, evaluated after 13 days. Summed up:
as §1

In assay [7] the test system is Amaranthus retoflexus (AMARE). The description is as above. The settings on record: applied at 500 g/h, evaluated after 13 days. Summed up: as §1
Assay [8] deals with Echinochloa crus-galh (ECHCG). The description is as above. Particulars: applied at 500 g/h, evaluated after 13 days. Summed up: as §1
Assay [9] deals with Ipomoea hederacea (IPOHE). The assay is described as above. Particulars: applied at 500 g/h, evaluated after 13 days. The essentials: as §1
In assay [10] the test system is Setaria faberi (SETFA). The description is as above. The settings on record: applied at 500 g/h, evaluated after 13 days. The essentials:
as §1

The record followed here is patent US20230219904A1 (SYNGENTA CROP PROTECTION AG, priority 2020, published 2023).

For `CCn1nnnc1NC(=O)c1ccc(OC(F)(F)F)c(NC(=O)c2ccccn2)c1Cl` [Compound 1.128], the “PRE Application ABUTH, percentage damage on five-point scale” value (from here on “PRE Application ABUTH, percentage damage”) in assay [1] is 4 (4=60-79%). Moreover, the “PRE Application AMARE, percentage damage on five-point scale” value (shortened to “PRE Application AMARE, percentage damage”) in [2] is on record as 5 (5=80-100%). In assay [3], the “PRE Application ECHCG, percentage damage on five-point scale” value (“PRE Application ECHCG, percentage damage” below) is recorded as 3 (3=40-59%). The “PRE Application IPOHE, percentage damage on five-point scale” value (from here on “PRE Application IPOHE, percentage damage”) in assay [4] is recorded as 1 (1=0-19%). In the assay with Setaria faberi (SETFA) [5], the “PRE Application SETFA, percentage damage on five-point scale” value (shortened to “PRE Application SETFA, percentage damage”) was 1 (1=0-19%). Also, in [6], the “POST Application ABUTH, percentage damage on five-point scale” value was 5 (5=80-100%). For the same compound, in assay [7], the “POST Application AMARE, percentage damage on five-point scale” value was 5 (5=80-100%). The “POST Application ECHCG, percentage damage on five-point scale” value in assay [8] was 5 (5=80-100%). The “POST Application IPOHE, percentage damage on five-point scale” value in assay [9] is given as 5 (5=80-100%). In the assay on Setaria faberi (SETFA) [10], the “POST Application SETFA, percentage damage on five-point scale” value was 5 (5=80-100%).
With `CCCn1nnnc1NC(=O)c1ccc(OC(F)(F)F)c(NC(C)=O)c1Cl` [Compound 1.129], in assay [1], the “PRE Application ABUTH, percentage damage” value is 5 (5=80-100%). In addition, the “PRE Application AMARE, percentage damage” value in [2] is reported as 5 (5=80-100%). In addition, the “PRE Application ECHCG, percentage damage” value in [3] is recorded as 4 (4=60-79%). The “PRE Application IPOHE, percentage damage” value in assay [4] is listed as 2 (2=20-39%). Moreover, the “PRE Application SETFA, percentage damage” value in the assay with Setaria faberi (SETFA) [5] is on record as 1 (1=0-19%). Further, the “POST Application ABUTH, percentage damage on five-point scale” value in [6] is 5 (5=80-100%). Besides, the “POST Application AMARE, percentage damage on five-point scale” value in assay [7] is 5 (5=80-100%). For the same compound, the “POST Application ECHCG, percentage damage on five-point scale” value in [8] is given as 5 (5=80-100%). In addition, in assay [9], the “POST Application IPOHE, percentage damage on five-point scale” value is reported as 5 (5=80-100%). Moreover, in the assay with Setaria faberi (SETFA) [10], the “POST Application SETFA, percentage damage on five-point scale” value is given as 5 (5=80-100%).
As to `COCC(=O)Nc1c(OC(F)(F)F)ccc(C(=O)Nc2nnnn2C)c1Cl` [Compound 1.130], the “PRE Application ABUTH, percentage damage” value in [1] was 4 (4=60-79%). The “PRE Application AMARE, percentage damage” value in assay [2] is given as 5 (5=80-100%). Moreover, in [3], the “PRE Application ECHCG, percentage damage” value is 2 (2=20-39%). Moreover, the “PRE Application IPOHE, percentage damage” value in assay [4] was 1 (1=0-19%). In addition, the “PRE Application SETFA, percentage damage” value with Setaria faberi (SETFA) [5] is 1 (1=0-19%). The “POST Application ABUTH, percentage damage on five-point scale” value in assay [6] is recorded as 5 (5=80-100%). For the same compound, the “POST Application AMARE, percentage damage on five-point scale” value in assay [7] is 5 (5=80-100%). Also, the “POST Application ECHCG, percentage damage on five-point scale” value in assay [8] is given as 5 (5=80-100%). Moreover, the “POST Application IPOHE, percentage damage on five-point scale” value in assay [9] is 4 (4=60-79%). Besides, the “POST Application SETFA, percentage damage on five-point scale” value with Setaria faberi (SETFA) [10] was 5 (5=80-100%).
In the case of `CCn1nnnc1NC(=O)c1ccc(OC(F)F)c(NC(=O)CC2CC2)c1Cl` [Compound 1.131], in [1], the “PRE Application ABUTH, percentage damage” value was 5 (5=80-100%). Besides, the “PRE Application AMARE, percentage damage” value in [2] is reported as 5 (5=80-100%). Moreover, in [3], the “PRE Application ECHCG, percentage damage” value is reported as 3 (3=40-59%). In addition, in assay [4], the “PRE Application IPOHE, percentage damage” value is recorded as 1 (1=0-19%). In the assay on Setaria faberi (SETFA) [5], the “PRE Application SETFA, percentage damage” value is 1 (1=0-19%). The “POST Application ABUTH, percentage damage on five-point scale” value in assay [6] was 5 (5=80-100%). For the same compound, the “POST Application AMARE, percentage damage on five-point scale” value in assay [7] is on record as 5 (5=80-100%). Also, in [8], the “POST Application ECHCG, percentage damage on five-point scale” value is recorded as 5 (5=80-100%). In addition, the “POST Application IPOHE, percentage damage on five-point scale” value in assay [9] is given as 5 (5=80-100%). The “POST Application SETFA, percentage damage on five-point scale” value in the assay on Setaria faberi (SETFA) [10] was 4 (4=60-79%).
For `CCCn1nnnc1NC(=O)c1ccc(OC(F)(F)F)c(NC(=O)c2ccccn2)c1Cl` [Compound 1.132], the “PRE Application ABUTH, percentage damage” value in assay [1] was 4 (4=60-79%). Also, the “PRE Application AMARE, percentage damage” value in assay [2] is reported as 5 (5=80-100%). Further, in assay [3], the “PRE Application ECHCG, percentage damage” value is recorded as 3 (3=40-59%). Besides, the “PRE Application IPOHE, percentage damage” value in assay [4] is listed as 4 (4=60-79%). Also, the “PRE Application SETFA, percentage damage” value in the assay with Setaria faberi (SETFA) [5] is on record as 1 (1=0-19%). Moreover, the “POST Application ABUTH, percentage damage on five-point scale” value in assay [6] is given as 5 (5=80-100%). The “POST Application AMARE, percentage damage on five-point scale” value in assay [7] is given as 5 (5=80-100%). In addition, the “POST Application ECHCG, percentage damage on five-point scale” value in assay [8] was 5 (5=80-100%). In addition, in assay [9], the “POST Application IPOHE, percentage damage on five-point scale” value was 5 (5=80-100%). In addition, the “POST Application SETFA, percentage damage on five-point scale” value in the assay with Setaria faberi (SETFA) [10] is 5 (5=80-100%).
